{
  "source": "patent US11472799B2",
  "about": "“Serine threonine kinase (AKT) degradation / disruption compounds and methods of use” (Icahn School of Medicine at Mount Sinai, priority 2018, dated 2022)",
  "data": [
    {"test_system": "AKT", "assay": "Western blot of AKT protein levels in PC-3 cells", "type": "cell-based, human", "settings": "1 μM (FIGS. 11 and 12)", "procedure": "PC-3, U87MG, HCC1143, MDA-MB-231, MDA-MB-468, BT474 and MCF-7 cell lines were purchased from ATCC. Cell lines were regularly tested in the lab for mycoplasma. All cells were cultured at 37° C. and 5% CO2. PC-3, U87MG, MDA-MB-231, MCF-7 and BT474 cells were cultured in 1×DMEM (Corning, 10-013-CV) with 10% fetal bovine serum (Atlanta Biologicals S11150) and 1× Penicillin/Streptomycin. HCC1143 cells were cultured in RPMI (Corning, 10-040-CV) medium with 10% fetal bovine serum (Atlanta Biologicals S11150) and 1× Penicillin/Streptomycin. Cells were split using 0.05% or 0.25% trypsin (Corning 25-051-Cl or 25-053-Cl, respectively) before they reached full confluence and media was changed every 3-4 days. Cells were treated with compounds individually at different concentrations for 24 hrs. Cells were treated with DMSO, VHL, or PML alone as controls.\nCells were lysed in 2× sample buffer (125 mM Tris-HCl at pH 6.8, 10% βME, 2% SDS, 20% glycerol, 0.05% Bromophenol Blue, 8 M urea). Protein lysates were loaded into 4-12% Bis-Tris gels and resolved by electrophoresis. Samples were then blotted on PVDF membrane (Millipore IPVH00010) using the wet transfer technique (Invitrogen). Membranes were blocked in 5% milk-TBST for 1 hour, washed in TBST for 10 min, and incubated in primary antibody in 5% milk-TBST or 5% BSA-TBST at 4° C. for 16 h. Membranes were rinsed (3×6 min) in TBST and incubated in horseradish peroxidase-conjugated secondary antibodies in 5% milk-TBST for 1 hour and rinsed again in TBST (3×6 min). Membranes were visualized using the chemiluminescence system (Thermo 34080, 37075) on autoradiography film (Denville E3018). Primary Antibodies: R-actin (Sigma A5316), p-AKT (Ser473 CST-9721), total AKT (CST-9272), p-S6 (Ser240/244, CST-5364), p-PRAS40 (Thr246, CST-2997). Secondary Antibodies: Mouse (Thermo 31432), Rabbit (Thermo 31460).", "values": [
      {"smiles": "Cc1ncsc1-c1ccc(CNC(=O)[C@@H]2C[C@@H](O)CN2C(=O)[C@@H](NC(=O)CCCCCCCCCCNC(=O)CCc2cccc(-c3ccc4nc(-c5cccnc5N)n(-c5ccc(C6(N)CCC6)cc5)c4n3)c2)C(C)(C)C)cc1", "note": "[XF067-18, (2S,4R)-1-((S)-2-(11-(3-(3-(3-(4-(1-aminocyclobutyl)phenyl)-2-(2-aminopyridin-3-yl)-3H-imidazo[4,5-b]pyridin-5-yl)phenyl)propanamido)undecanamido)-3,3-dimethylbutanoyl)-4-hydroxy-N-(4-(4-methylthiazol-5-yl)benzyl)pyrrolidine-2-carboxamide]", "suppression of AKT protein level and AKT activity": "effective in suppressing AKT protein level and AKT activity"},
      {"smiles": "Cc1ncsc1-c1ccc(CNC(=O)[C@@H]2C[C@@H](O)CN2C(=O)[C@@H](NC(=O)CCCCCCC(=O)NCCc2cccc(-c3ccc4nc(-c5cccnc5N)n(-c5ccc(C6(N)CCC6)cc5)c4n3)c2)C(C)(C)C)cc1", "note": "[XF067-44, N^1-(3-(3-(4-(1-aminocycIobutyl)phenyl)-2-(2-aminopyridin-3-yl)-3H-imidazo[4,5-b]pyridin-5-yl)phenethyl)-N^8-((S)-1-((2S,4R)-4-hydroxy-2-((4-(4-methylthiazol-5-yl)benzyl)carbamoyl)pyrrolidin-1-yl)-3,3-dimethyl-1-oxobutan-2-yl)octanediamide]", "suppression of AKT protein level and AKT activity": "effective in suppressing AKT protein level and AKT activity"},
      {"smiles": "Cc1ncsc1-c1ccc(CNC(=O)[C@@H]2C[C@@H](O)CN2C(=O)[C@@H](NC(=O)CCCCCCCC(=O)NCCc2cccc(-c3ccc4nc(-c5cccnc5N)n(-c5ccc(C6(N)CCC6)cc5)c4n3)c2)C(C)(C)C)cc1", "note": "[XF067-45, N^1-(3-(3-(4-(1-aminocyclobutyl)phenyl)-2-(2-aminopyridin-3-yl)-3H-imidazo[4,5-b]pyridin-5-yl)phenethyl)-N^9-((S)-1-((2S,4R)-4-hydroxy-2-((4-(4-methylthiazol-5-yl)benzyl)carbamoyl)pyrrolidin-1-yl)-3,3-dimethyl-1-oxobutan-2-yl)nonanediamide]", "suppression of AKT protein level and AKT activity": "effective in suppressing AKT protein level and AKT activity"},
      {"smiles": "Cc1ncsc1-c1ccc(CNC(=O)[C@@H]2C[C@@H](O)CN2C(=O)[C@@H](NC(=O)CCCCCCCCC(=O)NCCc2cccc(-c3ccc4nc(-c5cccnc5N)n(-c5ccc(C6(N)CCC6)cc5)c4n3)c2)C(C)(C)C)cc1", "note": "[XF067-46, N^1-(3-(3-(4-(1-aminocyclobutyl)phenyl)-2-(2-aminopyridin-3-yl)-3H-imidazo[4,5-b]pyridin-5-yl)phenethyl)-N^10-((S)-1-((2S,4R)-4-hydroxy-2-((4-(4-methylthiazol-5-yl)benzyl)carbamoyl)pyrrolidin-1-yl)-3,3-dimethyl-1-oxobutan-2-yl)decanediamide]", "suppression of AKT protein level and AKT activity": "effective in suppressing AKT protein level and AKT activity"},
      {"smiles": "Cc1ncsc1-c1ccc(CNC(=O)[C@@H]2C[C@@H](O)CN2C(=O)[C@@H](NC(=O)CCCCCCCCCC(=O)NCCc2cccc(-c3ccc4nc(-c5cccnc5N)n(-c5ccc(C6(N)CCC6)cc5)c4n3)c2)C(C)(C)C)cc1", "note": "[XF067-47, N^1-(3-(3-(4-(1-aminocyclobutyl)phenyl)-2-(2-aminopyridin-3-yl)-3H-imidazo[4,5-b]pyridin-5-yl)phenethyl)-N^11-((S)-1-((2S,4R)-4-hydroxy-2-((4-(4-methylthiazol-5-yl)benzyl)carbamoyl)pyrrolidin-1-yl)-3,3-dimethyl-1-oxobutan-2-yl)undecanediamide]", "suppression of AKT protein level and AKT activity": "effective in suppressing AKT protein level and AKT activity"},
      {"smiles": "CCn1c(-c2nonc2N)nc2c(C#CC(C)(C)O)ncc(OCCCNCCCC(=O)NCCCCCCCC(=O)N[C@H](C(=O)N3C[C@H](O)C[C@H]3C(=O)NCc3ccc(-c4scnc4C)cc3)C(C)(C)C)c21", "note": "[XF067-98, (2S,4R)-1-((S)-2-(8-(4-((3-((2-(4-amino-1,2,5-oxadiazol-3-yl)-1-ethyl-4-(3-hydroxy-3-methylbut-1-yn-1-yl)-1H-imidazo[4,5-c]pyridin-7-yl)oxy)propyl)amino)butanamido)octanamido)-3,3-dimethylbutanoyl)-4-hydroxy-N-(4-(4-methylthiazol-5-yl)benzyl)pyrrolidine-2-carboxamide]", "suppression of AKT protein level and AKT activity": "effective in suppressing AKT protein level and AKT activity"},
      {"smiles": "CCn1c(-c2nonc2N)nc2c(C#CC(C)(C)O)ncc(OCCCNCCCC(=O)NCCCCCCCCC(=O)N[C@H](C(=O)N3C[C@H](O)C[C@H]3C(=O)NCc3ccc(-c4scnc4C)cc3)C(C)(C)C)c21", "note": "[XF067-99, (2S,4R)-1-((S)-2-(9-(4-((3-((2-(4-amino-1,2,5-oxadiazol-3-yl)-1-ethyl-4-(3-hydroxy-3-methylbut-1-yn-1-yl)-1H-imidazo[4,5-c]pyridin-7-yl)oxy)propyl)amino)butanamido)nonanamido)-3,3-dimethylbutanoyl)-4-hydroxy-N-(4-(4-methylthiazol-5-yl)benzyl)pyrrolidine-2-carboxamide]", "suppression of AKT protein level and AKT activity": "effective in suppressing AKT protein level and AKT activity"},
      {"smiles": "CCn1c(-c2nonc2N)nc2c(C#CC(C)(C)O)ncc(OCCCNCCCC(=O)NCCCCCCCCCC(=O)N[C@H](C(=O)N3C[C@H](O)C[C@H]3C(=O)NCc3ccc(-c4scnc4C)cc3)C(C)(C)C)c21", "note": "[XF067-100, (2S,4R)-1-((S)-2-(10-(4-((3-((2-(4-amino-1,2,5-oxadiazol-3-yl)-1-ethyl-4-(3-hydroxy-3-methylbut-1-yn-1-yl)-1H-imidazo[4,5-c]pyridin-7-yl)oxy)propyl)amino)butanamido)decanamido)-3,3-dimethylbutanoyl)-4-hydroxy-N-(4-(4-methylthiazol-5-yl)benzyl)pyrrolidine-2-carboxamide]", "suppression of AKT protein level and AKT activity": "effective in suppressing AKT protein level and AKT activity"},
      {"smiles": "CCn1c(-c2nonc2N)nc2c(C#CC(C)(C)O)ncc(OCCCNCCCC(=O)NCCCCCCCCCCC(=O)N[C@H](C(=O)N3C[C@H](O)C[C@H]3C(=O)NCc3ccc(-c4scnc4C)cc3)C(C)(C)C)c21", "note": "[XF067-101, (2S,4R)-1-((S)-2-(11-(4-((3-((2-(4-amino-1,2,5-oxadiazol-3-yl)-1-ethyl-4-(3-hydroxy-3-methylbut-1-yn-1-yl)-1H-imidazo[4,5-c]pyridin-7-yl)oxy)propyl)amino)butanamido)undecanamido)-3,3-dimethylbutanoyl)-4-hydroxy-N-(4-(4-methylthiazol-5-yl)benzyl)pyrrolidine-2-carboxamide]", "suppression of AKT protein level and AKT activity": "effective in suppressing AKT protein level and AKT activity"},
      {"smiles": "CCn1c(-c2nonc2N)nc2c(C#CC(C)(C)O)ncc(OCCCNCCCC(=O)NCCCCCCCNc3cccc4c3C(=O)N(C3CCC(=O)NC3=O)C4=O)c21", "note": "(stereo not shown) [XF067-112, 4-((3-((2-(4-amino-1,2,5-oxadiazol-3-yl)-1-ethyl-4-(3-hydroxy-3-methylbut-1-yn-1-yl)-1H-imidazo[4,5-c]pyridin-7-yl)oxy)propyl)amino)-N-(7-((2-(2,6-dioxopiperidin-3-yl)-1,3-dioxoisoindolin-4-yl)amino)heptyl)butanamide]", "suppression of AKT protein level and AKT activity": "effective in suppressing AKT protein level and AKT activity"}
    ]}
  ]
}
